Tests used:
Type in all cases: cell-based, human
[1] = test system: Ewing's Sarcoma cell line Al (uncloned); test: Colony formation in semi-solid agar cultures, Al (uncloned) cells; conditions: Al(uncloned), 5,000 cells, day 18
Procedure: (§1) Tumour cells obtained from biopsy and bone marrow specimens from patients with Ewing's Sarcoma were used in these studies. Approval for this project has been obtained from the Ethics Committee of the Royal Children's Hospital.
(§2) Single cell suspensions of tumour cells were obtained by mechanical disruption with an 18G or 21G needle or by pipetting, followed by incubation with dispase II (Boehringer) at a concentration of 1.2 units per ml for 10 minutes at 37° C. Prior to the addition to agar-medium the cells were vortexed gently to prevent clumping.
(§3) Clonal cell lines were grown in Iscove's Modified Dulbecco's Medium (IMDM) supplemented with 10% v/v foetal calf serum (FCS; CSL Limited, Melbourne, Australia) and were passaged either weekly or twice weekly. The characteristics of the Ewing Sarcoma cell lines used herein as described below:
(§4) The tumour cells were immobilised in 0.3% w/v agar containing Iscove's Modified Dulbecco's Medium (IMDM) and 10% v/v FCS. […] Cultures were scored for the presence of colonies (>40 cells) or clusters (<40 cells). The number of cells plated per culture ranged from 500 to 10,000 per ml. Colonies were counted on an Olympus dissecting microscope.
(§5) IL-1, IL-3, IL-4, IL-6, M-CSF, G-CSF, GM-CSF, Stem Cell Factor (SCF), TNFα, TGFα, TGFβ, EGF, aFGF, bFGF, NGF, IGF I, IGF II, PDGF and IFN-γ.
(§6) The recombinant human leukaemia inhibitory factor (LIF) was obtained from AMRAD Corporation Limited, Melbourne, Australia.

[2] = test system: Ewing's Sarcoma cell line Al-5; test: Colony formation in semi-solid agar cultures, Al-5 cells; conditions: Al-5, 1,000 cells, day 18
Procedure: as §1, §2, §3
(§7) Cell lines derived from the above primary cell lines (Al and Cu) are identified by an Arabic numeral (e.g. Al-1, Al-5, Al-8 or Cu-1).
as §4, §5, §6

[3] = test system: Ewing's Sarcoma cell line Al-8; test: Colony formation in semi-solid agar cultures, Al-8 cells; conditions: Al-8, 1,000 cells, day 18
Procedure: as §1, §2, §3, §7, §4, §5, §6

[4] = test system: Ewing's Sarcoma cell line Al-1; test: Colony formation in semi-solid agar cultures, Al-1 cells; conditions: day 18
Procedure: as §1, §2, §3, §7, §4, §5, §6

[5] = test system: Ewing's Sarcoma cell line Cu-1; test: Colony formation in semi-solid agar cultures, Cu-1 cells; conditions: Cu-1, 10,000 cells, day 18
Procedure: as §1, §2, §3, §7, §4, §5, §6

Ewing's Sarcoma cells = test: Colony formation in agar cultures, a number of different Ewing's cell lines (summary statements); conditions: doses of Tables 1-3; TNF-α dose far above the physiological dose
Source text: as §4

[6] = stimulus 100 ng, mean of duplicate colony counts
[7] = Al-1, 1,000 cells, stimulus 100 ng, mean of duplicate colony counts
[8] = Al-1, 10,000 cells, stimulus 100 ng, mean of duplicate colony counts

Question: How did the Colonies/Cultures ([1]; stimulus 1:3000) turn out when “IL-4: commercially available growth factor, used at 1:3000” was run?
Answer: 165

Question: What about the Colonies/Cultures ([2]; stimulus 1:3000) of the same substance?
Answer: 38

Question: What about the Colonies/Cultures ([3]; stimulus 1:3000) of the same substance?
Answer: 82

Question: What about the Colonies/Cultures ([4]; Al-1, 1,000 cells, stimulus 1:3000) of the same substance?
Answer: 47

Question: And the Colonies/Cultures ([4]; Al-1, 10,000 cells, stimulus 1:3000)?
Answer: 720

Question: What about the Colonies/Cultures ([5]; stimulus 1:3000) of the same substance?
Answer: 325

Question: Which Colonies/Cultures [1, 6] does the source give for “NGF: commercially available growth factor” here?
Answer: 165

Question: And the Colonies/Cultures [2, 6]?
Answer: 32

Question: And the Colonies/Cultures [3, 6]?
Answer: 52

Question: And the Colonies/Cultures [4, 7]?
Answer: 49

Question: What about the Colonies/Cultures [4, 8] of the same substance?
Answer: 810

Question: What about the Colonies/Cultures [5, 6] of the same substance?
Answer: 360

Question: How did the Colonies/Cultures ([1]; stimulus 30 ng) turn out when PDGF was run?
Answer: 352

Question: And the Colonies/Cultures ([2]; stimulus 30 ng)?
Answer: 39

Question: What about the Colonies/Cultures ([3]; stimulus 30 ng) of the same substance?
Answer: 72

Question: And the Colonies/Cultures ([4]; Al-1, 1,000 cells, stimulus 30 ng)?
Answer: 47

Question: And the Colonies/Cultures ([5]; stimulus 30 ng)?
Answer: 390

Question: How did the Colonies/Cultures [1, 6] turn out when “SCF: commercially available growth factor, Stem Cell Factor” was run?
Answer: 225

Question: And the Colonies/Cultures [2, 6]?
Answer: 42

Question: What about the Colonies/Cultures [3, 6] of the same substance?
Answer: 77

Question: And the Colonies/Cultures [4, 7]?
Answer: 51

Question: What about the Colonies/Cultures [4, 8] of the same substance?
Answer: 950

Question: And the Colonies/Cultures [5, 6]?
Answer: 440

Question: “TGFa: commercially available growth factor” was tested. Which Colonies/Cultures ([1]; stimulus 20 ng) did it give?
Answer: 190

Question: What about the Colonies/Cultures ([3]; stimulus 20 ng) of the same substance?
Answer: 87

Question: And the Colonies/Cultures ([5]; stimulus 20 ng)?
Answer: 390

Question: Which Colonies/Cultures ([1]; stimulus 5 ng) does the source give for TGFb here?
Answer: 175

Question: What about the Colonies/Cultures ([2]; stimulus 5 ng) of the same substance?
Answer: 41

Question: What about the Colonies/Cultures ([3]; stimulus 5 ng) of the same substance?
Answer: 45

Question: What about the Colonies/Cultures ([4]; Al-1, 10,000 cells, stimulus 5 ng) of the same substance?
Answer: 540

Question: What about the Colonies/Cultures ([5]; stimulus 5 ng) of the same substance?
Answer: 385

Question: How did the Colonies/Cultures ([1]; stimulus 5 ug) turn out when TNFa was run?
Answer: 39

Question: And the Colonies/Cultures ([2]; stimulus 5 ug)?
Answer: 0

Question: What about the Colonies/Cultures ([3]; stimulus 5 ug) of the same substance?
Answer: 1

Question: What about the Colonies/Cultures ([4]; Al-1, 10,000 cells, stimulus 5 ug) of the same substance?
Answer: 2

Question: What about the Colonies/Cultures ([5]; stimulus 5 ug) of the same substance?
Answer: 190

Question: What about the “Effect on colony counts of the other factors” value (Ewing's Sarcoma cells) of the same substance?
Answer: with the exception of TNF-α showed any effect on colony counts

Question: For “aFGF: commercially available growth factor”, which Colonies/Cultures [1, 6] is on record?
Answer: 260

Question: And the Colonies/Cultures [2, 6]?
Answer: 58

Question: And the Colonies/Cultures [3, 6]?
Answer: 128

Question: What about the Colonies/Cultures [4, 7] of the same substance?
Answer: 57

Question: What about the Colonies/Cultures [4, 8] of the same substance?
Answer: 975

Question: What about the Colonies/Cultures [5, 6] of the same substance?
Answer: 520
